# According to PubChem BioAssay (NCI):
#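 Following 48 hours of exposure in 96-well plates, responses at five concentrations were used to interpolate endpoints linearly. TGI is the concentration that stops growth completely.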
# What was measured:
# Experiment in all cases: NCI anticancer screen, dose series, 48 h
# [1] = tested on: NCI-H460 lung
# [2] = tested on: CAKI-1 renal
# [3] = tested on: COLO 205 colon
# [4] = tested on: OVCAR-3 ovarian
# [5] = tested on: LOX IMVI melanoma
# [6] = tested on: A549 NSCLC
# [7] = tested on: HT29 colon
# [8] = tested on: PC-3 prostate
# [9] = tested on: HCT-116 colon
# [10] = tested on: SK-MEL-28 melanoma
SMILES,TGI [1] [µM],TGI [2] [µM],TGI [3] [µM],TGI [4] [µM],TGI [5] [µM],TGI [6] [µM],TGI [7] [µM],TGI [8] [µM],TGI [9] [µM],TGI [10] [µM]
O=C(O)CCSc1ncnc2nc[nH]c12,> 100,> 100,> 100,> 100,> 100,> 100,> 100,> 100,> 100,> 100
Fc1ccc(OCc2ccc3nc(-c4ccccc4)c(Cl)nc3c2)cc1,> 100,60.6,> 100,> 100,> 100,> 100,> 100,> 100,> 100,> 100
O=C(O)C12C3C4(C(=O)O)C1C1(C(=O)O)C2C3(C(=O)O)C41 (stereo not given),> 100,> 100,> 100,> 100,> 100,> 100,> 100,> 100,> 100,> 100
O=C1C=CC(=O)c2c(O)c(N3CCN(c4ncccn4)CC3)c(Cl)c(O)c21,> 47.6,4.4,3.36,3.16,3.55,22.6,6.73,8.88,3.14,4.57
C[C@@](Br)(C(=O)O)[C@H](Br)C(=O)O,> 100,> 100,> 100,> 100,> 100,> 100,> 100,> 100,> 100,> 100
COC(=O)[C@@H]1[C@H]2CC[C@]3(C)[C@@H](OC(C)=O)CC[C@H]3[C@@H]2CC[C@H]1C1(C)SCCS1,97.8,> 100,29.3,88.5,34.6,74.5,30,86,46.3,> 100
Fc1cccc(F)c1C1SCc2nc3cc(Cl)ccc3n21 (stereo not given),> 100,> 65.9,36.6,> 100,40,> 100,31.3,> 100,37,> 100
CC1=[N+]([O-])C2(CCCC2)N(O)C1(C)C,> 100,> 100,> 100,> 100,> 100,> 100,> 100,> 100,> 100,> 100
COc1ccc2c(c1)CCC(CN1CCN(CCOC(c3ccccc3)c3ccccc3)CC1)C2O (stereo not given),35.8,31.5,27.7,31.8,32.5,36,18.2,26.3,24.8,31.9
O=C1CCCC2=C1CC1=C(CCCC1=O)N2c1ccc(-c2ccccc2)cc1,> 100,> 100,> 100,> 100,> 100,> 100,> 100,> 100,> 100,> 100
Clc1sc(Cl)c2c1[C@H](Br)C[C@@H]2Cl,> 100,64.2,44.3,64.9,49.5,> 100,> 100,> 100,65.9,71
O=c1cccc2n1CC1CNCC2C1 (stereo not given),> 100,> 100,> 100,> 100,> 100,> 100,> 100,> 100,> 100,> 100
Cc1nc2ccccc2n1Cc1ccc(NC(=S)Nc2ccccc2)cc1,> 100,> 100,> 100,> 100,> 100,> 100,> 100,> 100,> 100,> 100
CC(C)(C)C#CI1OC(=O)c2ccccc21,11.9,7.21,4.65,8.84,3.89,31.9,22.8,19.5,6.82,17.8
CCOC(=O)OC1(c2ccccc2)CCN(C)CC1,> 100,> 100,> 100,> 100,> 100,> 100,> 100,> 100,> 100,> 100
